Assay results taken from paper PMC8512817 (Molecules, 2021).
Several values for one entry are separate records, joined by “and”; a condition that tells them apart may be missing. Identical values can stand only once. Peptide text beside a SMILES is read from it.

Target: DLG1-1 PDZ (Homo sapiens, UniProt Q12959)
Assay: biochemical
Details: not given
Excerpt: (§1) Starting with the HPV18 E6 C-terminal sequence, we designed a number of peptides to test specific peptide positions, including HPV16 E6, HPV18 E6, SRETTV, SRETDV, RRETTV, and RRETDV, where underlined residues differ from HPV18 E6. As a control, we also tested human SNX27, SHANK1, and GIPC PDZ targets previously studied, including GIRK3 (sequence: ESESKV), BPIX (WDETNL), GAIP (QSSSEA), TYRP1 (PNQSVV), and B1AR (ASESKV), as well as previously identified mbSHANK targets, including A9V7Z4 (EDETAL), A9UP44 (QSESRL), and A9UXE1 (QDETAL).
(§2) Figure 6 The binding isotherms from competition fluorescence polarization experiments of A9UPE9 (left, as labeled), and DLG1-1 (right, as labeled) PDZ domains are shown with the HPV18 E6 variant peptides SRETTV and SRETDV. The average values are shown, with error bars representing standard deviation from at least triplicate experiments.
(§3) Cells were lysed on ice using sonication.
(§4) Binding curves were visualized using Kaleidagraph.

Sequence of DLG1-1 PDZ (Q12959 220-317): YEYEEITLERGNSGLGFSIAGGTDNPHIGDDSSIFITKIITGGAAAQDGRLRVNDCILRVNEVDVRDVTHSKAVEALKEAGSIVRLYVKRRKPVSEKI

Question: How did the Ki turn out when `CC(C)C[C@H](NC(=O)[C@H](CC(N)=O)NC(=O)[C@@H](NC(=O)[C@H](CCC(=O)O)NC(=O)[C@H](CC(=O)O)NC(=O)[C@@H](N)Cc1c[nH]c2ccccc12)[C@@H](C)O)C(=O)O` [BPIX] (H-WDETNL-OH) was run?
Answer: 460 ± 140 µM

Question: `CC(C)C[C@H](NC(=O)[C@H](C)NC(=O)[C@@H](NC(=O)[C@H](CCC(=O)O)NC(=O)[C@H](CC(=O)O)NC(=O)[C@@H](N)CCC(=O)O)[C@@H](C)O)C(=O)O` [Peptide A9V7Z4] (H-EDETAL-OH) was tested. Which Ki did it give?
Answer: 460 ± 190 µM

Target: T1, A9UPE9 PDZ (Monosiga brevicollis, UniProt A9UPE9)
Assay: biochemical
Details: not given
Excerpt: as §1, §2, §3, §4

T1 sequence (A9UPE9 7-98): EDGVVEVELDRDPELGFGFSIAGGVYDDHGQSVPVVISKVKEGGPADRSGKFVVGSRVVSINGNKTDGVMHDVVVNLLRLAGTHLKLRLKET

Question: Which Ki does the source give for `CC[C@H](C)[C@H](NC(=O)[C@@H](N)C(C)C)C(=O)N[C@@H](C)C(=O)N[C@H](C(=O)N[C@@H](CCC(=O)O)C(=O)N[C@H](C(=O)O)C(C)C)[C@@H](C)O` [DLL1/DLL4] (H-VIATEV-OH) here?
Answer: 240 ± 40 µM

Question: How did the Ki turn out when `CC(C)[C@H](NC(=O)[C@H](CO)NC(=O)[C@H](CO)NC(=O)[C@H](CCC(=O)O)NC(=O)[C@H](CO)NC(=O)CN)C(=O)O` [Peptide A9UWP5_MONVE] (H-GSESSV-OH) was run?
Answer: 490 ± 110 µM

Question: With `CC(C)[C@H](NC(=O)[C@@H](NC(=O)[C@H](CO)NC(=O)[C@H](CCC(=O)O)NC(=O)[C@H](CCCNC(=N)N)NC(=O)[C@@H](N)Cc1c[nH]cn1)[C@@H](C)O)C(=O)O` [Peptide A9V6G5_MONBE] (H-HRESTV-OH) as the compound, how does the Ki read?
Answer: < 100 µM and 97 µM

Same assay, conditions: KI Values (μM) A9UPE9 PDZ, Table 3; competition FP, reporter 30 nM F*-HPV18 E6, 10.5 μM protein, at least triplicate, fitted with SOLVER

Question: With `CC(C)C[C@H](NC(=O)[C@H](CC(N)=O)NC(=O)[C@@H](NC(=O)[C@H](CCC(=O)O)NC(=O)[C@H](CC(=O)O)NC(=O)[C@@H](N)Cc1c[nH]c2ccccc12)[C@@H](C)O)C(=O)O` [BPIX] (H-WDETNL-OH) as the compound, how does the Ki read?
Answer: 330 ± 160 µM

Question: Which Ki does the source give for `C[C@H](NC(=O)[C@H](CCC(=O)O)NC(=O)[C@H](CO)NC(=O)[C@H](CO)NC(=O)[C@H](CO)NC(=O)[C@@H](N)CCC(N)=O)C(=O)O` [GAIP] (H-QSSSEA-OH) here?
Answer: > 1000 µM

Question: How did the Ki turn out when `CC(C)[C@H](NC(=O)[C@H](CCCCN)NC(=O)[C@H](CO)NC(=O)[C@H](CCC(=O)O)NC(=O)[C@H](CO)NC(=O)[C@@H](N)CCC(=O)O)C(=O)O` [GIRK3] (H-ESESKV-OH) was run?
Answer: > 1000 µM

Question: How did the Ki turn out when `CC(C)C[C@H](NC(=O)[C@H](CCC(N)=O)NC(=O)[C@@H](NC(=O)[C@H](CCC(=O)O)NC(=O)[C@H](CCCNC(=N)N)NC(=O)[C@H](CCCNC(=N)N)NC(=O)[C@@H](NC(=O)[C@H](CCCNC(=N)N)NC(=O)[C@H](CO)NC(=O)[C@@H](N)CO)[C@@H](C)O)[C@@H](C)O)C(=O)O` [HPV16 E6] was run?
Answer: 66 ± 24 µM

Question: How did the Ki turn out when `CC(C)C[C@H](NC(=O)[C@@H](N)CCCNC(=N)N)C(=O)N[C@@H](CCC(N)=O)C(=O)N[C@@H](CCCNC(=N)N)C(=O)N[C@@H](CCCNC(=N)N)C(=O)N[C@@H](CCCNC(=N)N)C(=O)N[C@@H](CCC(=O)O)C(=O)N[C@H](C(=O)N[C@@H](CCC(N)=O)C(=O)N[C@H](C(=O)O)C(C)C)[C@@H](C)O` [HPV18 E6] was run?
Answer: 16 ± 1 µM

Question: Which Ki does the source give for `CC(C)C[C@H](NC(=O)[C@H](CCCNC(=N)N)NC(=O)[C@H](CO)NC(=O)[C@H](CCC(=O)O)NC(=O)[C@H](CO)NC(=O)[C@@H](N)CCC(N)=O)C(=O)O` [Peptide A9UP44] (H-QSESRL-OH) here?
Answer: 64 ± 35 µM

Question: `CC(C)C[C@H](NC(=O)[C@H](C)NC(=O)[C@@H](NC(=O)[C@H](CCC(=O)O)NC(=O)[C@H](CC(=O)O)NC(=O)[C@@H](N)CCC(N)=O)[C@@H](C)O)C(=O)O` [Peptide A9UXE1] (H-QDETAL-OH) was tested. Which Ki did it give?
Answer: 460 ± 210 µM

Question: For `CC(C)C[C@H](NC(=O)[C@H](C)NC(=O)[C@@H](NC(=O)[C@H](CCC(=O)O)NC(=O)[C@H](CC(=O)O)NC(=O)[C@@H](N)CCC(=O)O)[C@@H](C)O)C(=O)O` [Peptide A9V7Z4] (H-EDETAL-OH), which Ki is on record?
Answer: 580 ± 160 µM

Question: For `CC(C)[C@H](NC(=O)[C@H](CCCCN)NC(=O)[C@H](CO)NC(=O)[C@H](CCC(=O)O)NC(=O)[C@H](CO)NC(=O)[C@H](C)N)C(=O)O` [Peptide B1AR] (H-ASESKV-OH), which Ki is on record?
Answer: 95 ± 30 µM

Question: `CC(C)[C@H](NC(=O)[C@@H](NC(=O)[C@H](CO)NC(=O)[C@H](CCC(N)=O)NC(=O)[C@H](CC(N)=O)NC(=O)[C@@H]1CCCN1)C(C)C)C(=O)O` [TYRP1] (H-PNQSVV-OH) was tested. Which Ki did it give?
Answer: 97 ± 24 µM

Target: T1, A9UPE9 PDZ
Assay: biochemical
Details: fluorescence polarization, 30 nM reporter peptide, triplicate experiments
Protocol: Expression and purification of all human and M. brevicollis PDZ domains followed a similar protocol, as previously reported for mbSHANK1 PDZ [48, 54]. Briefly, N-terminal His-tagged versions of A9UPE9 PDZ (residues 7–98) and DLG1-1 PDZ (residues 220–317) with cleavable TEV sites were inserted into the pET28a+ vector by gene synthesis (GenScript) and expressed in Escherichia coli BL21 (DE3) cells. Cells were lysed on ice using sonication. The lysis buffer used was 50 mM Tris pH 8.5, 200 mM NaCl, 10 mM CaCl2, 10 mM MgCl2, 20% (w/v) glycerol, 50 mM imidazole pH 8.5, 0.25 mM TCEP, DNAse, and protease inhibitor cocktail. Immobilized metal-affinity chromatography, 5 mL HisTrap (GE Healthcare, now Cytiva), was used to purify proteins from the clarified supernatant. The wash buffer used was 25 mM imidazole pH 8.5, 25 mM Tris pH 8.5, 250 mM NaCl, 10% (v/v) glycerol, and 0.25 mM TCEP, and the elution buffer was 400 mM imidazole pH 8.5, 25 mM Tris pH 8.5, 50 mM NaCl, 10% (v/v) glycerol, and 0.25 mM TCEP. Except for the protein used in binding experiments, the protein was then dialyzed in dialysis/gel filtration buffer (25 mM Tris pH 8.5, 150 mM NaCl, 10% (w/v) glycerol, 0.5 mM TCEP) and incubated at 4 °C overnight with TEV protease to cleave off the His-tag. The cleaved protein was then purified using a second nickel column with the wash and elution buffers described above. All proteins were further purified on a Superdex S75 column (Cytiva), using gel filtration buffer. Proteins were concentrated using Amicon centrifugal concentrators (3 MWCO). Concentrated proteins used in fluorescence polarization assays were flash frozen in liquid nitrogen for storage at −80 °C. The extinction coefficient values used for quantification of the proteins at A280 were 1490 cm^−1·M^−1 (A9UPE9) and 4470 cm^−1·M^−1 (DLG1-1).
Fluorescence polarization assays were conducted, as previously described [12, 45, 46, 48, 54, 60]. […] Competition experiments were performed in at least triplicate, and binding affinities were determined using SOLVER, as previously described [12, 45, 46, 48, 54, 60].

Question: Which Kd does the source give for `CC(C)C[C@H](NC(=O)[C@H](CCCNC(=N)N)NC(=S)Nc1ccc2c(c1)C(=O)OC21c2ccc(O)cc2Oc2cc(O)ccc21)C(=O)N[C@@H](CCC(N)=O)C(=O)N[C@@H](CCCNC(=N)N)C(=O)N[C@@H](CCCNC(=N)N)C(=O)N[C@@H](CCCNC(=N)N)C(=O)N[C@@H](CCC(=O)O)C(=O)N[C@H](C(=O)N[C@@H](CCC(N)=O)C(=O)N[C@H](C(=O)O)C(C)C)[C@@H](C)O` [F*-HPV18 E6] here?
Answer: 6.9 µM and < 10 µM

Same assay, conditions: fluorescence polarization, duplicate experiments

Question: How did the Kd turn out when `CC(C)C[C@H](NC(=O)[C@H](CCC(N)=O)NC(=O)[C@@H](NC(=O)[C@H](CCC(=O)O)NC(=O)[C@H](CCCNC(=N)N)NC(=O)[C@H](CCCNC(=N)N)NC(=O)[C@@H](NC(=O)[C@H](CCCNC(=N)N)NC(=O)[C@H](CO)NC(=O)[C@H](CO)NC(=S)Nc1ccc2c(c1)C(=O)OC21c2ccc(O)cc2Oc2cc(O)ccc21)[C@@H](C)O)[C@@H](C)O)C(=O)O` [FITC-SSRTRRETQL] was run?
Answer: 19.5 ± 1.8 µM
